Patent US8440206B2 (priority 2006, dated 2013)

Test system: CD8+ T cells
Type: cell-based, human

Row | Sequence | #SFU
1 | ELPQWLSANR | <10
2 | QTVEDEARRMW | 84
3 | RADEEQQQAL | 120
